Laboratory results published in patent publication US11254688B2 (Boehringer Ingelheim International GmbH, priority 2018, dated 2022).
pIC50: −log10 of the molar value.

Molecular target: T1, hGOAT (Homo sapiens, UniProt Q96T53)
T1 construct: expressed in transfected cells; host or cells: HEK293 (Hek293 hGOAT/PPGhrl Clone #1B8)
T1 sequence (Q96T53 1-435): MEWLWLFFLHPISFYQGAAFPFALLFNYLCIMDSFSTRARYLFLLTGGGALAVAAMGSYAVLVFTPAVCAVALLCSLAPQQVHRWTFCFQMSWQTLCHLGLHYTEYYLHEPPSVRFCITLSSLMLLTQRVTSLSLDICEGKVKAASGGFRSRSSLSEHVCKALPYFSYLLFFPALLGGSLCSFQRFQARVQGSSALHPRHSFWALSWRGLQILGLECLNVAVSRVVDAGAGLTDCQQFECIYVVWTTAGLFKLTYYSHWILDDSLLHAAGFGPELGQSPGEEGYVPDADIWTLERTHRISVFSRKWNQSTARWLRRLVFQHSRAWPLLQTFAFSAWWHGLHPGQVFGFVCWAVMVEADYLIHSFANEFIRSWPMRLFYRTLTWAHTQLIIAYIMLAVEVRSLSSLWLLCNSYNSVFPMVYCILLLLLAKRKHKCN
Experiment: Determination of hGOAT activity in HEK293 cells after incubation with test compound (acyl-ghrelin ELISA)
Format: cell-based
Conditions: HEK293 cells stably transfected with preproghrelin and human GOAT; octanoate-BSA 100 μM; 5 hours incubation; acyl-ghrelin in medium by ELISA; 8 compound concentrations
Protocol: Determination of hGOAT Activity in HEK293 Cells after Incubation with Test Compound
HEK293 cells stably transfected with two expression vectors, one coding for preproghrelin cDNA and a second for the expression of human GOATcDNA are used as a cellular model. After feeding the cells with octanoic acid for 5 hours, acyl-ghrelin is measured in cell culture medium by an ELISA procedure.
Cellline: Hek293 hGOAT/PPGhrl Clone #1B8Sodium octanoate, Sigma, Cat.-No. C5038
BD Poly-D-Lysin 384-well Plates, black-clear polystyrene BD Bioscience Cat.-No. […] ELISA human acylated Ghrelin Kit purchased from Bertin Pharman (detailed composition of buffers e.g. wash-puffer, ELISA buffer not known)
Cells are plated with a density of 5000 cells/well in 384-well poly-D-lysin plates and incubated for 1 day at 37° C., 5% CO2 in DMEM medium, 10% FCS, 1×NEAA, Puromycin (0.5 μg/ml) and G418 (1 mg/ml). Then the medium is changed to a identical medium without FCS and containing Octanoate-BSA (final concentration 100 μM each) and compound in DMSO (final DMSO concentration 0,3%). After incubation for 5 hours acylghrelin in the medium is measured by ELISA.
The medium sample is diluted 1:25 in Elisa buffer, a 25 μl aliquot is transferred to a 384-well ELISA plate previously washed 4 times with 100 μL wash buffer, and 25 μl tracer-solution is added. After incubation overnight (˜20 h) at 4° C. temperature the plate is washed 4 times with 100 μl wash-buffer per well. Finally 50 μl Ellman's reagent is added to each well and the plate is incubated in the dark for 20 minutes. The absorbance is measured at 405 nm in an Envision multilabel reader and the amount of acylated ghrelin is calculated according to a acylated ghrelin standard curve provided in the same plate.
The analysis of the data is performed by calculation of the percentage of acyl-ghrelin produced in the presence of test compound compared to the amount of acyl-ghrelin produced in the vehicle control samples. An inhibitor of the GOAT enzyme will give values between 100% CTL (no inhibition) and 0% CTL (complete inhibition).
IC50 values are calculated with Assay Explorer or other suited software based on curve fitting of results of 8 different compound concentrations.

pIC50 | Compound
9.14 | Cc1nc2nonc2c(N)c1Cc1ccc(OCC2CC2(F)F)nc1 (stereo in doubt) [Compound 21.13, 6-[(6-{[(1R)-2,2-Difluorocyclopropyl]methoxy}pyridin-3-yl)methyl]-5-methyl-[1,2,5]oxadiazolo[3,4-b]pyridin-7-amine]
9.65 | Cc1nc2nonc2c(N)c1Cc1ccc(Br)cc1 [Compound 1.1, 6-[(4-Bromophenyl)methyl]-5-methyl-[1,2,5]oxadiazolo[3,4-b]pyridin-7-amine]
9.41 | Cc1nc2nonc2c(N)c1Cc1ccc(OC(F)(F)F)cc1 [Compound 1.2, 5-Methyl-6-{[4-(trifluoromethoxy)phenyl]methyl}-[1,2,5]oxadiazolo[3,4-b]pyridin-7-amine]
9.53 | Cc1nc2nonc2c(N)c1Cc1ccc(C(F)(F)F)cc1 [Compound 1.3, 5-Methyl-6-{[4-(trifluoromethyl)phenyl]methyl}-[1,2,5]oxadiazolo[3,4-b]pyridin-7-amine]
9.90 | Cc1nc2nonc2c(N)c1Cc1ccc(I)cc1 [Compound 1.4, 6-[(4-Iodophenyl)methyl]-5-methyl-[1,2,5]oxadiazolo[3,4-b]pyridin-7-amine]
10.04 | COc1cc(OC(F)(F)F)ccc1Cc1c(C)nc2nonc2c1N [Compound 2.1, 6-{[2-Methoxy-4-(trifluoromethoxy)phenyl]methyl}-5-methyl-[1,2,5]oxadiazolo[3,4-b]pyridin-7-amine]
10.18 | COc1cc(C(F)(F)F)ccc1Cc1c(C)nc2nonc2c1N [Compound 2.2, 6-{[2-Methoxy-4-(trifluoromethyl)phenyl]methyl}-5-methyl-[1,2,5]oxadiazolo[3,4-b]pyridin-7-amine]
10.22 | COc1cc(Br)ccc1Cc1c(C)nc2nonc2c1N [Compound 2.3, 6-[(4-Bromo-2-methoxyphenyl)methyl]-5-methyl-[1,2,5]oxadiazolo[3,4-b]pyridin-7-amine]
9.88 | COc1cc(C#N)ccc1Cc1c(C)nc2nonc2c1N [Compound 2.4, 4-({7-Amino-5-methyl-[1,2,5]oxadiazolo[3,4-b]pyridin-6-yl}methyl)-3-methoxybenzonitrile]
9.40 | COc1cc(Cc2c(C)nc3nonc3c2N)ccc1C#N [Compound 2.5, 4-({7-Amino-5-methyl-[1,2,5]oxadiazolo[3,4-b]pyridin-6-yl}methyl)-2-methoxybenzonitrile]
8.85 | Cc1nc2nonc2c(N)c1Cc1cccc(Br)c1 [Compound 2.6, 6-[(3-Bromophenyl)methyl]-5-methyl-[1,2,5]oxadiazolo[3,4-b]pyridin-7-amine]
9.45 | Cc1nc2nonc2c(N)c1Cc1ccc(F)cc1F [Compound 2.7, 6-[(2,4-Difluorophenyl)methyl]-5-methyl-[1,2,5]oxadiazolo[3,4-b]pyridin-7-amine]
9.38 | Cc1nc2nonc2c(N)c1Cc1ccc(C#N)cc1 [Compound 2.8, 4-({7-Amino-5-methyl-[1,2,5]oxadiazolo[3,4-b]pyridin-6-yl}methyl)benzonitrile]
8.70 | Cc1nc2nonc2c(N)c1Cc1ccc(F)c(C#N)c1 [Compound 2.9, 5-({7-Amino-5-methyl-[1,2,5]oxadiazolo[3,4-b]pyridin-6-yl}methyl)-2-fluorobenzonitrile]
9.88 | COC(=O)c1ccc(Cc2c(C)nc3nonc3c2N)cc1 [Compound 2.10, Methyl 4-({7-amino-5-methyl-[1,2,5]oxadiazolo[3,4-b]pyridin-6-yl}methyl)benzoate]
8.97 | COc1ncccc1Cc1c(C)nc2nonc2c1N [Compound 2.11, 6-[(2-Methoxypyridin-3-yl)methyl]-5-methyl-[1,2,5]oxadiazolo[3,4-b]pyridin-7-amine]
9.31 | Cc1nc2nonc2c(N)c1Cc1ccc(S(C)(=O)=O)cc1 [Compound 2.12, 6-[(4-Methanesulfonylphenyl)methyl]-5-methyl-[1,2,5]oxadiazolo[3,4-b]pyridin-7-amine]

pIC50 | Compound
9.18 | Cc1nc2nonc2c(N)c1Cc1cccc2c1cnn2C [Compound 2.13, 5-Methyl-6-[(1-methyl-1H-indazol-4-yl)methyl]-[1,2,5]oxadiazolo[3,4-b]pyridin-7-amine]
10.02 | Cc1nc2nonc2c(N)c1Cc1ccc(OC(F)(F)F)c(Br)c1 [Compound 2.14, 6-{[3-Bromo-4-(trifluoromethoxy)phenyl]methyl}-5-methyl-[1,2,5]oxadiazolo[3,4-b]pyridin-7-amine]
9.05 | Cc1nc2nonc2c(N)c1Cc1ccc(CC#N)cc1 [Compound 2.15, 2-[4-({7-Amino-5-methyl-[1,2,5]oxadiazolo[3,4-b]pyridin-6-yl}methyl)phenyl]acetonitrile]
8.52 | Cc1nc2nonc2c(N)c1Cc1ccccc1 [Compound 2.16, 6-Benzyl-5-methyl-[1,2,5]oxadiazolo[3,4-b]pyridin-7-amine]
8.23 | Cc1nc2nonc2c(N)c1C(=O)c1ccc(C(F)(F)F)cc1 [Compound 3.1, 5-Methyl-6-[4-(trifluoromethyl)benzoyl]-[1,2,5]oxadiazolo[3,4-b]pyridin-7-amine]
9.31 | Cc1nc2nonc2c(N)c1Cc1ccc(F)c(F)c1 [Compound 4.0, 6-[(3,4-Difluorophenyl)methyl]-5-methyl-[1,2,5]oxadiazolo[3,4-b]pyridin-7-amine]
9.61 | Cc1nc2nonc2c(N)c1Cc1ccc(Cl)c(Cl)c1 [Compound 4.1, 6-[(3,4-Dichlorophenyl)methyl]-5-methyl-[1,2,5]oxadiazolo[3,4-b]pyridin-7-amine]
8.65 | Cc1nc2nonc2c(N)c1Cc1cccc(F)c1 [Compound 4.2, 6-[(3-Fluorophenyl)methyl]-5-methyl-[1,2,5]oxadiazolo[3,4-b]pyridin-7-amine]
8.80 | COc1ccc(Cc2c(C)nc3nonc3c2N)cn1 [Compound 4.3, 6-[(6-Methoxypyridin-3-yl)methyl]-5-methyl-[1,2,5]oxadiazolo[3,4-b]pyridin-7-amine]
8.39 | Cc1nc2nonc2c(N)c1Cc1ccc(F)nc1 [Compound 4.4, 6-[(6-Fluoropyridin-3-yl)methyl]-5-methyl-[1,2,5]oxadiazolo[3,4-b]pyridin-7-amine]
8.80 | Cc1nc2nonc2c(N)c1Cc1ccc(C(F)(F)F)nc1 [Compound 4.5, 5-Methyl-6-{[6-(trifluoromethyl)pyridin-3-yl]methyl}-[1,2,5]oxadiazolo[3,4-b]pyridin-7-amine]
8.51 | Cc1nc2nonc2c(N)c1Cc1ccc(C#N)nc1 [Compound 4.6, 5-({7-Amino-5-methyl-[1,2,5]oxadiazolo[3,4-b]pyridin-6-yl}methyl)pyridine-2-carbonitrile]
9.91 | Cc1nc2nonc2c(N)c1Cc1ccc(C(C)(C)C)nc1 [Compound 4.7, 6-[(6-tert-butylpyridine-3-yl)methyl]-5-methyl-[1,2,5]oxadiazolo[3,4-b]pyridin-7-amine]
8.85 | Cc1nc2nonc2c(N)c1Cc1ccc(C2(C#N)CC2)nc1 [Compound 4.8, 1-[5-({7-Amino-5-methyl-[1,2,5]oxadiazolo[3,4-b]pyridin-6-yl}methyl)pyridin-2-yl]cyclopropane-1-carbonitrile]
8.40 | Cc1nc2nonc2c(N)c1Cc1cccn2c(C)nnc12 [Compound 4.9, 5-Methyl-6-({3-methyl-[1,2,4]triazolo[4,3-a]pyridin-8-yl}methyl)-[1,2,5]oxadiazolo[3,4-b]pyridin-7-amine]
8.27 | Cc1nc2nonc2c(N)c1Cc1cccn2c(C(F)(F)F)nnc12 [Compound 4.10]
8.47 | Cc1nc2nonc2c(N)c1Cc1cccn2cnnc12 [Compound 4.11, 5-Methyl-6-({[1,2,4]triazolo[4,3-a]pyridin-8-yl}methyl)-[1,2,5]oxadiazolo[3,4-b]pyridin-7-amine]
